{
  "source": "the kinase profiling compilation of Christmann-Franck et al. (2016)",
  "experiment_in_all_cases": "KINOMEscan competition binding",
  "details_in_all_cases": "compound 10.0 µM",
  "key": {"[1]": {"target": "MAPKAPK2 (human) (UniProt P49137)"}, "[2]": {"target": "MAPKAPK5 (human) (UniProt Q8IW41)", "sequence (Q8IW41 whole entry, looked up)": "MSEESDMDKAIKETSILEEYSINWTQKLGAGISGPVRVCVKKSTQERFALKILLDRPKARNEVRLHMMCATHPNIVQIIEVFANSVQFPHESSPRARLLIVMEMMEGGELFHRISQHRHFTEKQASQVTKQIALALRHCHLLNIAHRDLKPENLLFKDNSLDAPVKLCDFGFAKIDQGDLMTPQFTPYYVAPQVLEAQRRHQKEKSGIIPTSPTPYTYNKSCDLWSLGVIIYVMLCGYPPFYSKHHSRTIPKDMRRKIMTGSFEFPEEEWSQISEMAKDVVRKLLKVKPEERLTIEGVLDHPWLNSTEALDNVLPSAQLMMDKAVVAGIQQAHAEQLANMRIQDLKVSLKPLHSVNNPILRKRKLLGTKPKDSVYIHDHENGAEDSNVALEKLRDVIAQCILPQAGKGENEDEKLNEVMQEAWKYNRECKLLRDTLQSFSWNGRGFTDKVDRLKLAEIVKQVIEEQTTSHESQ"}, "[3]": {"target": "CSNK2A1 (human) (UniProt P68400)", "sequence (P68400 whole entry, looked up)": "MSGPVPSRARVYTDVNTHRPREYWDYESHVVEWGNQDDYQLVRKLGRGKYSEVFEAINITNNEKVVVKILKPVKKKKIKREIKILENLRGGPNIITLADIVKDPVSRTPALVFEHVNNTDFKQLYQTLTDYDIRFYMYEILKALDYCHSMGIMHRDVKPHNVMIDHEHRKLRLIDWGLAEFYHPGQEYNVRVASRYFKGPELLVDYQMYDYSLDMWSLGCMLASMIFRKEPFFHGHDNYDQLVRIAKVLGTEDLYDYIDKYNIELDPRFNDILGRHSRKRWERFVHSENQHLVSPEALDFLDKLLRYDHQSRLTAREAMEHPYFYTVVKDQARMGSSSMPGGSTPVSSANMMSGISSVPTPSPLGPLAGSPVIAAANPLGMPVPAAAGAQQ"}, "[4]": {"target": "PIK3CD (human) (UniProt O00329)"}, "[5]": {"target": "DCLK2 (human) (UniProt Q8N568)", "sequence (Q8N568 whole entry, looked up)": "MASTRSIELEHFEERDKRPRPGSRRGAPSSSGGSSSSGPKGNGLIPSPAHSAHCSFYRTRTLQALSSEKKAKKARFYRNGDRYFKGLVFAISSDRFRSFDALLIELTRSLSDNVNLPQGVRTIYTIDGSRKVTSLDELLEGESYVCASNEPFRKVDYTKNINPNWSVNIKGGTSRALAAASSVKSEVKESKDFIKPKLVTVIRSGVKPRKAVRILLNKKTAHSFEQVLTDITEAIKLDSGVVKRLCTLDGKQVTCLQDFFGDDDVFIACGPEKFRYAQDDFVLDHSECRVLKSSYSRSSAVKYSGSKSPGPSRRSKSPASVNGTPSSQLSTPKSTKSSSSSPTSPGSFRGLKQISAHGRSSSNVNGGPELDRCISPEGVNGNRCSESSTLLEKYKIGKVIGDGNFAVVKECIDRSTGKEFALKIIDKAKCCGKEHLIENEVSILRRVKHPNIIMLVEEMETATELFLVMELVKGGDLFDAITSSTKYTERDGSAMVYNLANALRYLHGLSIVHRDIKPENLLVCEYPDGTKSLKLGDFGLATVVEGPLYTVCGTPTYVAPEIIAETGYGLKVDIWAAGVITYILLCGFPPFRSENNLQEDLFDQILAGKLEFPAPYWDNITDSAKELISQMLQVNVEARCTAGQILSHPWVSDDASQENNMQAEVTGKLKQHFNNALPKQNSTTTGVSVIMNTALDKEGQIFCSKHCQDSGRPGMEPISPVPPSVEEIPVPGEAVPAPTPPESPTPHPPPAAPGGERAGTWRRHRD"}, "[6]": {"target": "PIM2 (human) (UniProt Q9P1W9)"}, "[7]": {"target": "GSK3A (human) (UniProt P49840)"}, "[8]": {"target": "MAP3K10 (human) (UniProt Q02779)"}, "[9]": {"target": "MAPK12 (human) (UniProt P53778)"}, "[10]": {"target": "DAPK1 (human) (UniProt P53355)"}, "[11]": {"target": "FLT4 (human) (UniProt P35916)", "sequence (P35916 whole entry, looked up)": "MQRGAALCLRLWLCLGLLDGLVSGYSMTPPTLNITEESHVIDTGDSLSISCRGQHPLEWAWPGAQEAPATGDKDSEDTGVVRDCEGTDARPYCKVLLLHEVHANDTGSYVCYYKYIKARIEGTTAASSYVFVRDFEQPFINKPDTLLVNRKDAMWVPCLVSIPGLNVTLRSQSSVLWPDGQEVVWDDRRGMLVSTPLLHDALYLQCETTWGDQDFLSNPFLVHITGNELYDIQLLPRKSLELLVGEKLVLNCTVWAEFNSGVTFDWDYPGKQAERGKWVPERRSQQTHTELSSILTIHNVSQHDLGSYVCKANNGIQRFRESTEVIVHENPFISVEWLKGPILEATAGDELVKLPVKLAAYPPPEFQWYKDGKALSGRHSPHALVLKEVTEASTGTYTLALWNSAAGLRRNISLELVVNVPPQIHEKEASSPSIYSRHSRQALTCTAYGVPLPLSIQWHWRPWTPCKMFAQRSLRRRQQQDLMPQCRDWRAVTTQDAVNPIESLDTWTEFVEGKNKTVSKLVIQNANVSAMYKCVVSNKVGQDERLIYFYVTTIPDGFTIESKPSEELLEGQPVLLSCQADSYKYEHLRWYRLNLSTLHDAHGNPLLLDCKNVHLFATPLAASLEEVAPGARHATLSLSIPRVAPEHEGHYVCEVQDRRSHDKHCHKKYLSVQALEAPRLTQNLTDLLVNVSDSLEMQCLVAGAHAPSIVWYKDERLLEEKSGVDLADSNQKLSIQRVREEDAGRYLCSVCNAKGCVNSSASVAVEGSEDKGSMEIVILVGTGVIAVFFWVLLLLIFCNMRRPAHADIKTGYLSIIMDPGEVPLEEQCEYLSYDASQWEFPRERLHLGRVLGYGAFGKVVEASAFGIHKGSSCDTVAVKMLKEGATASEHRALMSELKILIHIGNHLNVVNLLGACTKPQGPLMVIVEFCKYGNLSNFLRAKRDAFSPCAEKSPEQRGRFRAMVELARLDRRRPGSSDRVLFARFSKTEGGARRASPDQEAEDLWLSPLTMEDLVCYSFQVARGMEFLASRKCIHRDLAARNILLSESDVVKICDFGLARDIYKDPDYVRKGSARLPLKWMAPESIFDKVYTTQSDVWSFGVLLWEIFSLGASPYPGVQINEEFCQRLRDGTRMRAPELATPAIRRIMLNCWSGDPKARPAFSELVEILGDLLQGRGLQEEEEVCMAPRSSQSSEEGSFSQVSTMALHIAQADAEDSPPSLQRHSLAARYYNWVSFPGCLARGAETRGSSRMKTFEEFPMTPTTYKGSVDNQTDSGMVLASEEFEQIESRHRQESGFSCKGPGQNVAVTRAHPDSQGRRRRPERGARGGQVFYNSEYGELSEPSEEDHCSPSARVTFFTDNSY"}, "[12]": {"target": "TIE1 (human) (UniProt P35590)"}, "[13]": {"target": "EPHA4 (human) (UniProt P54764)", "sequence (P54764 whole entry, looked up)": "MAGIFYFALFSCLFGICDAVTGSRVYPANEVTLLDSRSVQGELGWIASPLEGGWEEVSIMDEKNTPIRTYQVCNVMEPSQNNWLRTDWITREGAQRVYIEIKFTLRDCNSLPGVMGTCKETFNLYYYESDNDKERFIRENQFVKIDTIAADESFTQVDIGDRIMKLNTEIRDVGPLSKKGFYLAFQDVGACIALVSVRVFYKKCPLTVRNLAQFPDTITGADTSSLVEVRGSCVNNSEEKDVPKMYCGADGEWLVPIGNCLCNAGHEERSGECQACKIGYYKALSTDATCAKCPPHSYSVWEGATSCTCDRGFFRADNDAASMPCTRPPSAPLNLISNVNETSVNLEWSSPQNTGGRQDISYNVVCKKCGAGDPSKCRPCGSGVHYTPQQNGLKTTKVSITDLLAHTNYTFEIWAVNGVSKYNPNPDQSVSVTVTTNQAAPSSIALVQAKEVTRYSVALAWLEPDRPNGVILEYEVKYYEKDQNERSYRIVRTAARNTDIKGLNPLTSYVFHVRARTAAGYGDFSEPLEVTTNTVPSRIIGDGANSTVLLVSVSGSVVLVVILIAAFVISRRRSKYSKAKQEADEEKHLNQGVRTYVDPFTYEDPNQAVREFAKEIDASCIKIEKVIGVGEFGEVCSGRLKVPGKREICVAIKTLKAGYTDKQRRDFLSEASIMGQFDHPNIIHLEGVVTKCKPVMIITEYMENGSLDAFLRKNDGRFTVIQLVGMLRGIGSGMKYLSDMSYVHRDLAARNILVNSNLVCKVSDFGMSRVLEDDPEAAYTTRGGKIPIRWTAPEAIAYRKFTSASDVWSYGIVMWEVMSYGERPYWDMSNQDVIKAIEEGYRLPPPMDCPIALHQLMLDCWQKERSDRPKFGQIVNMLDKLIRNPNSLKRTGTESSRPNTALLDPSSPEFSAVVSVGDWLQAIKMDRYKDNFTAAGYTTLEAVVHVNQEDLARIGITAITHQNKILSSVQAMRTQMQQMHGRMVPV"}, "[14]": {"target": "BMPR2 (human) (UniProt Q13873)"}, "[15]": {"target": "EGFR (human) (UniProt P00533)"}, "[16]": {"target": "NTRK2 (human) (UniProt Q16620)"}, "[17]": {"target": "STK36 (human) (UniProt Q9NRP7)"}, "[18]": {"target": "PRKACA (human) (UniProt P17612)"}, "[19]": {"target": "NEK1 (human) (UniProt Q96PY6)"}, "[20]": {"target": "CDK16 (human) (UniProt Q00536)", "sequence (Q00536 whole entry, looked up)": "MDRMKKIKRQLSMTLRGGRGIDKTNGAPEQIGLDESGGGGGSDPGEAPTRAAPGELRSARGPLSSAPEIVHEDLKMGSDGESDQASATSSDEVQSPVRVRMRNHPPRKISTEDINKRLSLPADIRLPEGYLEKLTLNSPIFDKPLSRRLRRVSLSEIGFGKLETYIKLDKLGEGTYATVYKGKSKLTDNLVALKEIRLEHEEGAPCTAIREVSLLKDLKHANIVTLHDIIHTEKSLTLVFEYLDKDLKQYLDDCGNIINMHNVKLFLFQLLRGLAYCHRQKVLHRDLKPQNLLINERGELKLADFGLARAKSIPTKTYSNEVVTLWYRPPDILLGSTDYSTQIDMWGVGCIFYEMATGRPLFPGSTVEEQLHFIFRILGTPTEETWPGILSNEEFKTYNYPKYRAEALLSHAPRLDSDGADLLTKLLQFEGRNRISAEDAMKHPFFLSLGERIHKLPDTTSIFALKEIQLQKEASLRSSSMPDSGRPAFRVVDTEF"}, "[21]": {"target": "MAP2K4 (human) (UniProt P45985)"}, "[22]": {"target": "CLK3 (human) (UniProt P49761)"}, "[23]": {"target": "ADCK4 (human) (UniProt Q96D53)"}, "[24]": {"target": "NEK2 (human) (UniProt P51955)"}, "[25]": {"target": "TTK (human) (UniProt P33981)"}, "[26]": {"target": "LIMK1 (human) (UniProt P53667)"}, "[27]": {"target": "MUSK (human) (UniProt O15146)"}, "[28]": {"target": "CSNK1A1L (human) (UniProt Q8N752)"}, "[29]": {"target": "NTRK3 (human) (UniProt Q16288)"}, "[30]": {"target": "DCLK3 (human) (UniProt Q9C098)"}, "[31]": {"target": "SIK2 (human) (UniProt Q9H0K1)"}, "[32]": {"target": "HCK (human) (UniProt P08631)"}, "[33]": {"target": "MAPK14 (human) (UniProt Q16539)"}, "[34]": {"target": "STK35 (human) (UniProt Q8TDR2)", "sequence (Q8TDR2 whole entry, looked up)": "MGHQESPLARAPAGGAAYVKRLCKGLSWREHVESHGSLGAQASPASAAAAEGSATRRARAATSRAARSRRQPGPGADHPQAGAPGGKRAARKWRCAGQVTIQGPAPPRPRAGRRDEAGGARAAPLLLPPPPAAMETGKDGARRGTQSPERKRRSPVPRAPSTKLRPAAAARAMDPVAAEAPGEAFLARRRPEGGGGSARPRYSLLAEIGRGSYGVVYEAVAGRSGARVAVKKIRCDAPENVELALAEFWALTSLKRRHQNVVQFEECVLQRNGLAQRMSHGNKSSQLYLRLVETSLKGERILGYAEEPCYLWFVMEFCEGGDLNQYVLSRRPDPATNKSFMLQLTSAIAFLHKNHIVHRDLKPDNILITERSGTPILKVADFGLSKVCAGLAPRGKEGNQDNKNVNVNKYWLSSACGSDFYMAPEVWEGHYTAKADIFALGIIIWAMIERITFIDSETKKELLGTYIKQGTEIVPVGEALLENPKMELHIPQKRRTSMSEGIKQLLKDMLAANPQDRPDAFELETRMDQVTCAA"}, "[35]": {"target": "CAMK2A (human) (UniProt Q9UQM7)"}, "[36]": {"target": "EPHA6 (human) (UniProt Q9UF33)"}},
  "data": [
    {"smiles": "CNC(=O)c1ccc(Nc2cc(Nc3ccccc3S(=O)(=O)C(C)C)c3cc[nH]c3n2)nc1", "values": [
      {"measurement": "kinase still bound, per cent of control", "setting": "[1]", "result": 100, "unit": "%"},
      {"measurement": "kinase still bound, per cent of control", "setting": "[2]", "result": 100, "unit": "%"},
      {"measurement": "kinase still bound, per cent of control", "setting": "[3]", "result": 4.4, "unit": "%"},
      {"measurement": "kinase still bound, per cent of control", "setting": "[4]", "result": 100, "unit": "%"},
      {"measurement": "kinase still bound, per cent of control", "setting": "[5]", "result": 100, "unit": "%"},
      {"measurement": "kinase still bound, per cent of control", "setting": "[6]", "result": 100, "unit": "%"},
      {"measurement": "kinase still bound, per cent of control", "setting": "[7]", "result": 18, "unit": "%"},
      {"measurement": "kinase still bound, per cent of control", "setting": "[8]", "result": 18, "unit": "%"},
      {"measurement": "kinase still bound, per cent of control", "setting": "[9]", "result": 100, "unit": "%"},
      {"measurement": "kinase still bound, per cent of control", "setting": "[10]", "result": 100, "unit": "%"},
      {"measurement": "kinase still bound, per cent of control", "setting": "[11]", "result": 29, "unit": "%"},
      {"measurement": "kinase still bound, per cent of control", "setting": "[12]", "result": 0.2, "unit": "%"},
      {"measurement": "kinase still bound, per cent of control", "setting": "[13]", "result": 100, "unit": "%"},
      {"measurement": "kinase still bound, per cent of control", "setting": "[14]", "result": 7.9, "unit": "%"},
      {"measurement": "kinase still bound, per cent of control", "setting": "[15]", "result": 100, "unit": "%"},
      {"measurement": "kinase still bound, per cent of control", "setting": "[16]", "result": 0, "unit": "%"},
      {"measurement": "kinase still bound, per cent of control", "setting": "[17]", "result": 100, "unit": "%"},
      {"measurement": "kinase still bound, per cent of control", "setting": "[18]", "result": 100, "unit": "%"},
      {"measurement": "kinase still bound, per cent of control", "setting": "[19]", "result": 100, "unit": "%"},
      {"measurement": "kinase still bound, per cent of control", "setting": "[20]", "result": 22, "unit": "%"},
      {"measurement": "kinase still bound, per cent of control", "setting": "[21]", "result": 100, "unit": "%"},
      {"measurement": "kinase still bound, per cent of control", "setting": "[22]", "result": 2.8, "unit": "%"},
      {"measurement": "kinase still bound, per cent of control", "setting": "[23]", "result": 25, "unit": "%"},
      {"measurement": "kinase still bound, per cent of control", "setting": "[24]", "result": 100, "unit": "%"},
      {"measurement": "kinase still bound, per cent of control", "setting": "[25]", "result": 4.6, "unit": "%"},
      {"measurement": "kinase still bound, per cent of control", "setting": "[26]", "result": 100, "unit": "%"},
      {"measurement": "kinase still bound, per cent of control", "setting": "[27]", "result": 0.95, "unit": "%"},
      {"measurement": "kinase still bound, per cent of control", "setting": "[28]", "result": 26, "unit": "%"},
      {"measurement": "kinase still bound, per cent of control", "setting": "[29]", "result": 0.4, "unit": "%"},
      {"measurement": "kinase still bound, per cent of control", "setting": "[30]", "result": 2.8, "unit": "%"},
      {"measurement": "kinase still bound, per cent of control", "setting": "[31]", "result": 9.8, "unit": "%"},
      {"measurement": "kinase still bound, per cent of control", "setting": "[32]", "result": 11, "unit": "%"},
      {"measurement": "kinase still bound, per cent of control", "setting": "[33]", "result": 100, "unit": "%"},
      {"measurement": "kinase still bound, per cent of control", "setting": "[34]", "result": 12, "unit": "%"},
      {"measurement": "kinase still bound, per cent of control", "setting": "[35]", "result": 100, "unit": "%"},
      {"measurement": "kinase still bound, per cent of control", "setting": "[36]", "result": 29, "unit": "%"}
    ]}
  ]
}
